# ChEMBL document CHEMBL1137105, “New N-pyridinyl(methyl)-indolalkanamides acting as topical inflammation inhibitors” (2004)
# Active and inactive are the calls of the source. The rule behind the calls is not given here.
# Test system: Mus musculus
# Experiment: inhibition of acute TPA-induced ear swelling in mice on oral administration of 0.1 nmol/kg
# Assay type: functional
# Details: not given
row,Compound,inhibition in vivo at 0.0001 µmol/kg
1,O=C(CCc1cn(CCN2CCOCC2)c2ccccc12)Nc1ccncc1,63%
2,O=C(CCc1cn(Cc2ccc(Cl)cc2)c2ccc(Cl)cc12)Nc1ccncc1,64%
3,O=C(CCn1ccc2ccccc21)Nc1ccncc1,77%
4,Cc1cc(C)nc(NC(=O)CCc2c[nH]c3ccccc23)c1,72%
5,O=C(CCc1cn(Cc2ccccc2)c2ccccc12)Nc1ccncc1,84%
6,O=C(CCc1cn(Cc2ccc(Cl)cc2)c2ccccc12)NCc1cccnc1,92%
7,Cc1cc(C)nc(NC(=O)CCc2cn(Cc3ccccc3)c3ccccc23)c1,61%
8,Cc1cc(C)nc(NC(=O)CCc2cn(Cc3ccc(Cl)cc3)c3ccc(Cl)cc23)c1,83%
9,O=C(CCc1cn(Cc2ccccc2)c2ccccc12)NCc1cccnc1,70%
10,C[C@@H]1C[C@H]2[C@@H]3CCC4=CC(=O)C=C[C@]4(C)[C@@]3(F)[C@@H](O)C[C@]2(C)[C@@]1(O)C(=O)CO [DEXAMETHASONE],82%
11,Cc1cc(C)nc(NC(=O)/C=C/c2cn(Cc3ccc(F)cc3)c3ccccc23)c1,80%
12,O=C(CCc1cn(Cc2ccc(Cl)cc2)c2ccccc12)Nc1ccncc1,72%
13,CC(C)Cc1ccc(C(C)C(=O)O)cc1 (configuration not stated) [IBUPROFEN],35%
14,O=C(CCc1cn(Cc2ccc(Cl)cc2)c2ccc(Cl)cc12)NCc1cccnc1,84%
15,O=C(CCc1c[nH]c2ccccc12)Nc1ccncc1,77%
16,Cc1cc(C)nc(NC(=O)CCc2cn(Cc3ccc(Cl)cc3)c3ccccc23)c1,64%

# Test system: Mus musculus
# Experiment: inhibition of acute TPA-induced ear swelling in mice on oral administration of 0.1 nmol/kg; not active
# Assay type: functional, organism-based
# Details: not given
row,Compound,inhibition
1,O=C(CCc1c[nH]c2ccccc12)NCc1cccnc1,inactive

# Test system: Mus musculus
# Experiment: inhibition of acute TPA-induced ear swelling in mice upon topical application of 2x 100 ug
# Assay type: functional
# Details: not given
row,Compound,Inhibition
1,O=C(CCc1c[nH]c2ccccc12)Nc1ccncc1,38%

# Test system: Mus musculus
# Experiment: Percent inhibition of acute TPA-induced ear swelling in mice upon topical application at 2x 100 ug
# Assay type: functional
# Details: not given
row,Compound,Inhibition
1,Cc1cc(C)nc(NC(=O)CCc2c[nH]c3ccccc23)c1,66%
2,O=C(CCc1cn(Cc2ccccc2)c2ccccc12)Nc1ccncc1,90%
3,O=C(CCc1cn(Cc2ccc(Cl)cc2)c2ccccc12)NCc1cccnc1,71%
4,Cc1cc(C)nc(NC(=O)CCc2cn(Cc3ccc(Cl)cc3)c3ccc(Cl)cc23)c1,89%
5,C[C@@H]1C[C@H]2[C@@H]3CCC4=CC(=O)C=C[C@]4(C)[C@@]3(F)[C@@H](O)C[C@]2(C)[C@@]1(O)C(=O)CO [DEXAMETHASONE],96%
6,Cc1cc(C)nc(NC(=O)/C=C/c2cn(Cc3ccc(F)cc3)c3ccccc23)c1,66%
7,CC(C)Cc1ccc(C(C)C(=O)O)cc1 (configuration not stated) [IBUPROFEN],59%
8,O=C(CCc1cn(Cc2ccc(Cl)cc2)c2ccc(Cl)cc12)NCc1cccnc1,94%

# Test system: not listed separately
# Experiment: Inhibitory dose was determined
# Assay type: functional
# Details: read-out: ID50 (the source's name)
row,Compound,ED50
1,O=C(CCc1cn(Cc2ccc(Cl)cc2)c2ccccc12)NCc1cccnc1,24 µmol/kg
